The molecules below were run on MOLM-13 cells (assay: Cell viability assay (CELLTITER-GLO), MOLM-13 cells). Conditions: Homo sapiens, MOLM-13, 72 h; Table 2; compound at 10 μM, 3 days; read-out: Effect on MOLM-13 cell viability (% DMSO).
Type: cell-based
Experimental: MOLM-13 cells, MV-4-11 cells, H23, and H358 cells were independently cultured in RPMI 1640 media supplemented with 10% fetal bovine serum, streptomycin and penicillin. The cells were plated in white walled 96-well plates at 4,000 cells/well. The cells were incubated in DMSO (control) or a compound for 3 days at 37° C. under 5% CO2. A CELLTITER-GLO® reagent (100 μL) was then added to each well. After a 10 min incubation with shaking, luminescence was measured using an ENVISION® multimode plate reader.
In Tables 1 and 2, each compound was tested at 10 μM; and in Table 3, each compound was tested at 1 μM. In Tables 1 to 3, the cell viability values as % DMSO are reported as “A,” “B,” “C,” or “D;” where “A” represents a % viability value of less than 10%; “B” represents a % viability value of no less than 10% and less than 25%; “C” represents a % viability value of no less than 25% and less than 50%; and “D” represents a % viability value of no less than 50%. Compound A is […]

SMILES | viability at 10 µM [%]
C=CC(=O)N1CC(N2Cc3ccc(-c4cc(O)cc5ccccc45)cc3N(CCOCCOCCC(=O)NCCOc3cccc4c3C(=O)N(C3CCC(=O)NC3=O)C4=O)C2=O)C1 (centres unmarked) [Compound 11, 3-(2-(2-(3-(1-Acryloylazetidin-3-yl)-7-(3-hydroxynaphthalen-1-yl)-2-oxo-3,4-dihydroquinazolin-1(2H)-yl)ethoxy)ethoxy)-N-(2-((2-(2,6-dioxopiperidin-3-yl)-1,3-dioxoisoindolin-4-yl)oxy)ethyl)propanamide] | ≥ 50
CCC(=O)N1CC(N2Cc3ccc(-c4cc(O)cc5ccccc45)cc3N(CCOCCOCCOCCNc3cccc4c3C(=O)N(C3CCC(=O)NC3=O)C4=O)C2=O)C1 (centres unmarked) [Compound 12, 2-(2,6-Dioxopiperidin-3-yl)-4-((2-(2-(2-(2-(7-(3-hydroxynaphthalen-1-yl)-2-oxo-3-(1-propionylazetidin-3-yl)-3,4-dihydroquinazolin-1(2H)-yl)ethoxy)ethoxy)ethoxy)ethyl)amino)-isoindoline-1,3-dione] | ≥ 50
C=CC(=O)N1CCN(c2ncnc3c(F)c(-c4c(O)cccc4F)c(Cl)cc23)C(CC(=O)NCCCCCNC(=O)NCc2cc3c(s2)C(=O)N(C2CCC(=O)NC2=O)C3)C1 (centres unmarked) [Compound 13, 2-(4-Acryloyl-1-(6-chloro-8-fluoro-7-(2-fluoro-6-hydroxyphenyl)quinazolin-4-yl)piperazin-2-yl)-N-(5-(3-((5-(2,6-dioxopiperidin-3-yl)-6-oxo-5,6-dihydro-4H-thieno[2,3-c]pyrrol-2-yl)methyl)ureido)pentyl)acetamide] | ≥ 50
C=CC(=O)N1CC(c2nc3ccc(-c4cc(O)cc5ccccc45)cc3c(=O)n2CCOCCOCCNCc2ccc(OCc3scc4c3CN([C@H]3CCC(=O)NC3=O)C4=O)cc2)C1 [Compound 14, (S)-3-(1-((4-(((2-(2-(2-(2-(1-Acryloylazetidin-3-yl)-6-(3-hydroxynaphthalen-1-yl)-4-oxoquinazolin-3(4H)-yl)ethoxy)ethoxy)ethyl)amino)methyl)phenoxy)methyl)-4-oxo-4H-thieno[3,4-c]pyrrol-5(6H)-yl)piperidine-2,6-dione] | ≥ 50
C=CC(=O)N1CC(c2nc3ccc(-c4cc(O)cc5ccccc45)cc3c(=O)n2CCNCc2ccc(OCc3scc4c3CN([C@H]3CCC(=O)NC3=O)C4=O)cc2)C1 [Compound 15, (S)-3-(1-((4-(((2-(2-(1-Acryloylazetidin-3-yl)-6-(3-hydroxynaphthalen-1-yl)-4-oxoquinazolin-3(4H)-yl)ethyl)amino)methyl)phenoxy)methyl)-4-oxo-4H-thieno[3,4-c]pyrrol-5(6H)-yl)piperidine-2,6-dione] | ≥ 50
C=CC(=O)N1CC(N2Cc3ccc(-c4cc(O)cc5ccccc45)cc3N(CCCCNCc3ccc(OCc4scc5c4CN([C@H]4CCC(=O)NC4=O)C5=O)cc3)C2=O)C1 [Compound 16, (S)-3-(1-((4-(((4-(3-(1-Acryloylazetidin-3-yl)-7-(3-hydroxynaphthalen-1-yl)-2-oxo-3,4-dihydroquinazolin-1(2H)-yl)butyl)amino)methyl)phenoxy)methyl)-4-oxo-4H-thieno[3,4-c]pyrrol-5(6H)-yl)piperidine-2,6-dione] | ≥ 50

Same assay, conditions: Homo sapiens, MOLM-13, 72 h; Table 3; compound at 1 μM, 3 days; read-out: Effect on MOLM-13 cell viability (% DMSO)

SMILES | viability at 1 µM [%]
C=CC(=O)N1CCN(c2ncnc3c(F)c(-c4c(F)cccc4OCCOCCOCCC(=O)NCCOc4cccc5c4C(=O)N(C4CCC(=O)NC4=O)C5=O)c(Cl)cc23)CC1 (centres unmarked) [Compound 3, 3-(2-(2-(2-(4-(4-Acryloylpiperazin-1-yl)-6-chloro-8-fluoroquinazolin-7-yl)-3-fluorophenoxy)ethoxy)ethoxy)-N-(2-((2-(2,6-dioxopiperidin-3-yl)-1,3-dioxoisoindolin-4-yl)oxy)ethyl)propanamide] | ≥ 50
CCC(=O)N1CC(N2Cc3ccc(-c4cc(O)cc5ccccc45)cc3N(CCNCc3ccc(OCc4scc5c4CN(C4CCC(=O)NC4=O)C5=O)cc3)C2=O)C1 (centres unmarked) [Compound 4, 3-(1-((4-(((2-(7-(3-Hydroxynaphthalen-1-yl)-2-oxo-3-(1-propionylazetidin-3-yl)-3,4-dihydroquinazolin-1(2H)-yl)ethyl)amino)methyl)phenoxy)methyl)-4-oxo-4H-thieno[3,4-c]pyrrol-5(6H)-yl)piperidine-2,6-dione] | 10 to 25
CCC(=O)N1CC(N2Cc3ccc(-c4cc(O)cc5ccccc45)cc3N(CCOCCNCc3ccc(OCc4scc5c4CN(C4CCC(=O)NC4=O)C5=O)cc3)C2=O)C1 (centres unmarked) [Compound 5, 3-(1-((4-(((2-(2-(7-(3-Hydroxynaphthalen-1-yl)-2-oxo-3-(1-propionylazetidin-3-yl)-3,4-dihydroquinazolin-1(2H)-yl)ethoxy)ethyl)amino)methyl)phenoxy)methyl)-4-oxo-4H-thieno[3,4-c]pyrrol-5(6H)-yl)piperidine-2,6-dione] | ≥ 50
CCC(=O)N1CCN(c2ncnc3c(F)c(-c4c(F)cccc4OCCOCCOCCC(=O)NCCNc4cccc5c4C(=O)N(C4CCC(=O)NC4=O)C5=O)c(Cl)cc23)CC1 (centres unmarked) [Compound 6, 3-(2-(2-(2-(6-Chloro-8-fluoro-4-(4-propionylpiperazin-1-yl)quinazolin-7-yl)-3-fluorophenoxy)ethoxy)ethoxy)-N-(2-((2-(2,6-dioxopiperidin-3-yl)-1,3-dioxoisoindolin-4-yl)amino)ethyl)propanamide] | ≥ 50
CCC(=O)N1CC(N2Cc3ccc(-c4cc(O)cc5ccccc45)cc3N(CCOCCOCCC(=O)NCCOc3cccc4c3C(=O)N(C3CCC(=O)NC3=O)C4=O)C2=O)C1 (centres unmarked) [Compound 7, N-(2-((2-(2,6-Dioxopiperidin-3-yl)-1,3-dioxoisoindolin-4-yl)oxy)ethyl)-3-(2-(2-(7-(3-hydroxynaphthalen-1-yl)-2-oxo-3-(1-propionylazetidin-3-yl)-3,4-dihydroquinazolin-1(2H)-yl)ethoxy)ethoxy)propanamide] | ≥ 50
CCC(=O)N1CCN(c2ncnc3c(F)c(-c4c(F)cccc4OCCOCCOCCC(=O)NCCOc4cccc5c4C(=O)N(C4CCC(=O)NC4=O)C5=O)c(Cl)cc23)CC1 (centres unmarked) [Compound 8, 3-(2-(2-(2-(6-Chloro-8-fluoro-4-(4-propionylpiperazin-1-yl)quinazolin-7-yl)-3-fluorophenoxy)ethoxy)ethoxy)-N-(2-((2-(2,6-dioxopiperidin-3-yl)-1,3-dioxoisoindolin-4-yl)oxy)ethyl)propanamide] | ≥ 50
CCC(=O)N1CCN(c2ncnc3c(F)c(-c4c(F)cccc4OCCOCCOCCOCCNc4cccc5c4C(=O)N(C4CCC(=O)NC4=O)C5=O)c(Cl)cc23)CC1 (centres unmarked) [Compound 9, 4-((2-(2-(2-(2-(2-(6-Chloro-8-fluoro-4-(4-propionylpiperazin-1-yl)quinazolin-7-yl)-3-fluorophenoxy)ethoxy)ethoxy)ethoxy)ethyl)amino)-2-(2,6-dioxopiperidin-3-yl)isoindoline-1,3-dione] | ≥ 50
C=CC(=O)N1CC(N2Cc3ccc(-c4cc(O)cc5ccccc45)cc3N(CCOCCC(=O)NCCOc3cccc4c3C(=O)N(C3CCC(=O)NC3=O)C4=O)C2=O)C1 (centres unmarked) [Compound 10, 3-(2-(3-(1-Acryloylazetidin-3-yl)-7-(3-hydroxynaphthalen-1-yl)-2-oxo-3,4-dihydroquinazolin-1(2H)-yl)ethoxy)-N-(2-((2-(2,6-dioxopiperidin-3-yl)-1,3-dioxoisoindolin-4-yl)oxy)ethyl)propanamide] | ≥ 50

— patent US12630547B2, “RAS protein degraders, pharmaceutical compositions thereof, and their therapeutic applications” (BioTheryX, Inc., priority 2019, dated 2026)
